In ChEMBL document CHEMBL1201862, “PubChem BioAssay data set” (2004):
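Assay format: 96-well plates, 48-hour exposure. GI50 marks 50% less growth.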 Active and inactive are the calls of the source. Cut-off read from the data, not from the text of the source: active = GI50 up to about 1.1 µM and inactive = higher.

How the values were obtained:
Assay in all cases: inhibition of tumour cell growth, NCI panel, 48 h
[1] = tested on: SW-620
[2] = tested on: CAKI-1
[3] = tested on: SK-MEL-2
[4] = tested on: M14
[5] = tested on: DU-145
[6] = tested on: SF-268
[7] = tested on: NCI/ADR-RES
[8] = tested on: MCF7
[9] = tested on: DLD-1
[10] = tested on: Hs-578T
[11] = tested on: HCT-116
[12] = tested on: SK-MEL-5
[13] = tested on: HT-29
[14] = tested on: 786-0
[15] = tested on: NCI-H23
[16] = tested on: MOLT-4
[17] = tested on: DMS-273
[18] = tested on: OVCAR-8
[19] = tested on: SN12C
[20] = tested on: RPMI-8226
[21] = tested on: SR
[22] = tested on: RXF 393
[23] = tested on: T47D
[24] = tested on: LOX IMVI
[25] = tested on: HCC 2998
[26] = tested on: EKVX
[27] = tested on: U-251
[28] = tested on: HOP-92
[29] = tested on: UACC-257
[30] = tested on: NCI-H460
[31] = tested on: Malme-3M
[32] = tested on: MDA-MB-231
[33] = tested on: SK-OV-3
[34] = tested on: K562
[35] = tested on: SF-295
[36] = tested on: TK-10
[37] = tested on: NCI-H226
[38] = tested on: MDA-MB-435
[39] = tested on: PC-3
[40] = tested on: A498
[41] = tested on: SK-MEL-28
[42] = tested on: UO-31
[43] = tested on: HOP-62
[44] = tested on: COLO 205
[45] = tested on: HL-60
[46] = tested on: BT-549
[47] = tested on: A549
[48] = tested on: OVCAR-3
[49] = tested on: OVCAR-5
[50] = tested on: MDA-N
[51] = tested on: NCI-H522
[52] = tested on: ACHN
[53] = tested on: UACC-62
[54] = tested on: HCT-15
[55] = tested on: IGROV-1
[56] = tested on: SF-539
[57] = tested on: CCRF-CEM
[58] = tested on: SNB-75
[59] = tested on: OVCAR-4
[60] = tested on: KM12
[61] = tested on: SNB-19

COc1ccc2c(c1)-c1nn(CCCN(C)C)c3ccc([N+](=O)[O-])c(c13)N2 [PYRAZOLOACRIDINE]
GI50 [1]: 0.133 µM (active)
GI50 [2]: 0.396 µM (active)
GI50 [3]: 0.647 µM (active)
GI50 [4]: 0.61 µM (active)
GI50 [5]: 0.484 µM (active)
GI50 [6]: 0.283 µM (active)
GI50 [7]: 0.0986 µM (active)
GI50 [8]: 0.333 µM (active)
GI50 [9]: 262 nM (active)
GI50 [10]: 0.603 µM (active)
GI50 [11]: 0.0986 µM (active)
GI50 [12]: 0.536 µM (active)
GI50 [13]: 0.137 µM (active)
GI50 [14]: 0.191 µM (active)
GI50 [15]: 0.662 µM (active)
GI50 [16]: 0.0662 µM (active)
GI50 [17]: 135 nM (active)
GI50 [18]: 0.118 µM (active)
GI50 [19]: 0.199 µM (active)
GI50 [20]: 0.305 µM (active)
GI50 [21]: 0.173 µM (active)

CCCCc1ccc(Nc2nc(Cl)c3ccn(C4CC(Oc5ccc(C)cc5)C(COc5ccc(C)cc5)O4)c3n2)cc1 (centres undefined)
GI50 [1]: > 46.5 µM (inactive)
GI50 [22]: > 46.5 µM (inactive)
GI50 [2]: > 46.5 µM (inactive)
GI50 [23]: > 46.5 µM (inactive)
GI50 [24]: > 46.5 µM (inactive)
GI50 [3]: > 46.5 µM (inactive)
GI50 [25]: > 46.5 µM (inactive)
GI50 [26]: 28.6 µM (inactive)
GI50 [27]: > 46.5 µM (inactive)
GI50 [28]: > 46.5 µM (inactive)
GI50 [4]: > 46.5 µM (inactive)
GI50 [29]: 25.9 µM (inactive)
GI50 [30]: > 31.6 µM (inactive)
GI50 [31]: 26.7 µM (inactive)
GI50 [5]: > 46.5 µM (inactive)
GI50 [32]: > 46.5 µM (inactive)
GI50 [33]: > 46.5 µM (inactive)
GI50 [34]: > 46.5 µM (inactive)
GI50 [35]: > 46.5 µM (inactive)
GI50 [6]: > 100 µM (inactive)
GI50 [36]: 30.3 µM (inactive)
GI50 [7]: > 46.5 µM (inactive)
GI50 [37]: > 46.5 µM (inactive)
GI50 [8]: > 46.5 µM (inactive)
GI50 [38]: > 46.5 µM (inactive)
GI50 [39]: > 100 µM (inactive)
GI50 [40]: > 46.5 µM (inactive)
GI50 [41]: > 100 µM (inactive)
GI50 [42]: 25.6 µM (inactive)
GI50 [43]: > 100 µM (inactive)
GI50 [44]: > 46.5 µM (inactive)
GI50 [45]: > 46.5 µM (inactive)
GI50 [46]: 12.6 µM (inactive)
GI50 [10]: > 100 µM (inactive)
GI50 [47]: > 46.5 µM (inactive)
GI50 [11]: > 46.5 µM (inactive)
GI50 [12]: > 46.5 µM (inactive)
GI50 [48]: > 100 µM (inactive)
GI50 [13]: > 46.5 µM (inactive)
GI50 [14]: > 46.5 µM (inactive)
GI50 [15]: 24.8 µM (inactive)
GI50 [16]: > 46.5 µM (inactive)
GI50 [49]: > 31.6 µM (inactive)
GI50 [50]: > 46.5 µM (inactive)
GI50 [51]: 22.4 µM (inactive)
GI50 [52]: 25.2 µM (inactive)
GI50 [53]: 24.5 µM (inactive)
GI50 [54]: > 46.5 µM
GI50 [18]: > 46.5 µM (inactive)
GI50 [55]: 22.9 µM (inactive)
GI50 [56]: > 46.5 µM (inactive)
GI50 [57]: > 46.5 µM (inactive)
GI50 [19]: > 46.5 µM (inactive)
GI50 [20]: > 46.5 µM (inactive)
GI50 [58]: > 83.2 µM (inactive)
GI50 [59]: > 31.6 µM (inactive)
GI50 [21]: > 10 µM (inactive)
GI50 [60]: > 46.5 µM (inactive)
GI50 [61]: 25.9 µM (inactive)

O=CN1CCC23CC(O)CCC2C1Cc1cc(Oc2nnnn2-c2ccccc2)cc(O)c13 (centres undefined)
GI50 [1]: > 100 µM (inactive)
GI50 [22]: > 100 µM (inactive)
GI50 [2]: > 100 µM (inactive)
GI50 [23]: 79.1 µM (inactive)
GI50 [24]: 57.3 µM (inactive)
GI50 [3]: 81.3 µM (inactive)
GI50 [25]: > 100 µM (inactive)
GI50 [26]: > 100 µM (inactive)
GI50 [27]: > 100 µM (inactive)
GI50 [28]: 44.7 µM (inactive)
GI50 [4]: > 100 µM (inactive)
GI50 [29]: > 100 µM (inactive)
GI50 [30]: 85.9 µM (inactive)
GI50 [31]: > 100 µM (inactive)
GI50 [5]: > 100 µM (inactive)
GI50 [32]: > 100 µM (inactive)
GI50 [33]: > 100 µM (inactive)
GI50 [34]: > 100 µM (inactive)
GI50 [35]: > 100 µM (inactive)
GI50 [6]: > 100 µM (inactive)
GI50 [36]: > 100 µM (inactive)
GI50 [7]: > 100 µM (inactive)
GI50 [37]: > 100 µM (inactive)
GI50 [8]: 54 µM (inactive)
GI50 [38]: 66.7 µM (inactive)
GI50 [39]: > 100 µM (inactive)
GI50 [40]: 68.4 µM (inactive)
GI50 [41]: > 100 µM (inactive)
GI50 [42]: 85.3 µM (inactive)
GI50 [43]: > 100 µM (inactive)
GI50 [44]: 32.9 µM (inactive)
GI50 [45]: 52.1 µM (inactive)
GI50 [46]: 51.9 µM (inactive)
GI50 [10]: > 100 µM (inactive)
GI50 [47]: > 100 µM (inactive)
GI50 [11]: > 100 µM (inactive)
GI50 [12]: 47.2 µM (inactive)
GI50 [48]: > 100 µM (inactive)
GI50 [13]: 59.4 µM (inactive)
GI50 [14]: > 100 µM (inactive)
GI50 [15]: > 100 µM (inactive)
GI50 [16]: 48.9 µM (inactive)
GI50 [49]: > 100 µM (inactive)
GI50 [50]: > 100 µM (inactive)
GI50 [51]: 91.4 µM (inactive)
GI50 [52]: > 100 µM (inactive)
GI50 [53]: 65.2 µM (inactive)
GI50 [54]: 80 µM
GI50 [18]: > 100 µM (inactive)
GI50 [55]: 37.8 µM (inactive)
GI50 [56]: > 100 µM (inactive)
GI50 [57]: 65.5 µM (inactive)
GI50 [19]: > 100 µM (inactive)
GI50 [20]: 93.3 µM (inactive)
GI50 [58]: > 100 µM (inactive)
GI50 [59]: 86.1 µM (inactive)
GI50 [21]: 55 µM (inactive)
GI50 [60]: 57.9 µM (inactive)
GI50 [61]: > 100 µM (inactive)
